Test results taken from PMC7583942, “Profiling Anticancer and Antioxidant Activities of Phenolic Compounds Present in Black Walnuts (Juglans nigra) Using a High-Throughput Screening Approach” (Molecules, 2020).
Read-outs that look alike come from different tables or passages of the source.

Columns and labels:
[1] = tested on: non-tumorigenic lung fibroblast cells (MRC-5); assay: Cell proliferation assay (CellTiter-Glo), MRC-5; format: cell-based, human; details: read-out: Half maximal inhibitory concentration (IC50), MRC-5 Cell Line
Method: (§1) An Nrf2 antioxidant response element (ARE) reporter HepG2 cell line, a stably transfected liver cell line expressing a firefly luciferase gene under the control of the ARE, was purchased from BPS Bioscience (San Diego, CA, USA). The human alveolar epithelial cell line A549 and the human lung fibroblast cell line MRC-5 were obtained from American Type Culture Collection (ATCC) (CCL-185 and CCL-171, ATCC, Manassas, VA, USA). The HepG2-ARE cells were grown in modified Eagle’s medium (MEM) supplemented with GlutaMAX, 10% fetal calf serum (FBS) and 600ug/mL Geneticin (Thermo Fisher Scientific, Waltham, MA, USA). […] All cells were grown and maintained at 37 °C in a humidified incubator with 5% CO2. Influence of the phenolic compounds on cell growth in the tumorigenic alveolar epithelial cells (A549) and non-tumorigenic lung fibroblast cell (MRC-5) cell lines was investigated using the CellTiter-Glo® cell viability assay kit (G7571, BioVision, CA, USA), according to the manufacturer’s instructions. […] The cultures were treated with the phenolic compounds and DL-Sulphorane (a known antiproliferative agent as a positive control) at 7 final concentrations (as mentioned above) and a vehicle (0.35% DMSO). After 72h of incubation, CellTiter-Glo Luminescent assay reagent (Promega) was dispensed at a volume of 10 µL per well into the 384-well plates for 10 min using the Matrix Wellmate dispenser (Thermo Fisher Scientific). The plates were allowed to incubate at room temperature for 20 min and then the luminescence was read using an Enspire microplate reader (Perkin Elmer Inc.) The relative cytotoxicity (%) of the phenolic compounds was calculated by dividing the specific luminescence absorbance of the treated sampled by the specific luminescence absorbance of the control sample and multiplying by 100. The control sample (in the presence of DMSO vehicle and without the compounds) was set at 100%. Non-linear regression analysis of data was performed to identify the dose-response curve for each compound. The IC50 values (half maximal inhibitory concentration) of each compound were determined from the dose-response curve for the A549 and MRC-5 cell lines using GraphPad Prism 8.

[2] = tested on: tumorigenic alveolar epithelial cells (A549); assay: Cell proliferation assay (CellTiter-Glo), A549; format: cell-based, human; details: read-out: Half maximal inhibitory concentration (IC50), A549 Cell Line
Method: as §1

[3] = Total antioxidant capacity (TAC) colorimetric assay; details: for Fold-Increase Over Trolox: coefficient of compound model divided by coefficient of Trolox control; for total antioxidant capacity compared with the control (Trolox): in words; for Slope (in Trolox Equivalents): linear regression of dose-response, 7 concentrations, Cu2+ reagent, 1.5 h, absorbance 570 nm
Method: The antioxidant capacity of the phenolic compounds was evaluated using a total antioxidant capacity (TAC) colorimetric assay kit (K274-100, BioVision, CA, USA), according to the manufacturer’s instructions. Briefly, the phenolic compounds tested at 7 concentrations (as described above) were added to 384-well plates. Subsequently, Cu^2+ working solution (12.5 µL/ well) was added into the sample wells. The 384-well plates were incubated for 1.5 h at room temperature and the absorbance of the samples was then read at 570 nm using a microplate reader (Enspire, Perkin Elmer Inc., Waltham, MA, USA). Trolox was used to standardize the antioxidant capacity, as recommended by the manufacturer. A Trolox standard curve was included, and the total antioxidant capacity of the phenolic compounds was interpolated and expressed as Trolox equivalent (mM) from a seven-parameter logistic curve of the Trolox control using curve-fitting software.
For total antioxidant capacity analysis, linear regression analysis was performed to identify the linear regression equation for each compound using GraphPad Prism 8 (San Diego, CA, USA). The coefficient of the compound equation was compared with the coefficient of the Trolox control to determine the relative total antioxidant capacity of each compound. Fold-increase over Trolox was calculated by dividing the coefficient of the compound models by the coefficient of the Trolox control.

[4] = tested on: antioxidant response element (ARE) in HepG2-ARE cells; assay: Antioxidant response element (ARE) activation, Steady-Glo luciferase reporter assay; format: cell-based, human; details: for toxicity to HepG2-ARE cells: at high concentrations, did not induce ARE activation
Method: An Nrf2 antioxidant response element (ARE) reporter HepG2 cell line, a stably transfected liver cell line expressing a firefly luciferase gene under the control of the ARE, was purchased from BPS Bioscience (San Diego, CA, USA). The human alveolar epithelial cell line A549 and the human lung fibroblast cell line MRC-5 were obtained from American Type Culture Collection (ATCC) (CCL-185 and CCL-171, ATCC, Manassas, VA, USA). The HepG2-ARE cells were grown in modified Eagle’s medium (MEM) supplemented with GlutaMAX, 10% fetal calf serum (FBS) and 600ug/mL Geneticin (Thermo Fisher Scientific, Waltham, MA, USA). The tumorigenic alveolar epithelial cells (A549) and non-tumorigenic lung fibroblast cells (MRC-5) were grown in RPMI medium supplemented with 10% FBS. All cells were grown and maintained at 37 °C in a humidified incubator with 5% CO2.
The impact of the phenolic compounds on ARE activation in the HepG2-ARE cell line was evaluated using Steady-Glo® Luciferase assay system (E2510, Promega, Madison, WI, USA), following the manufacturer’s instructions. In brief, the HepG2 -ARE cells were seeded at a density of 10,000 cells/well in 384-well plates containing 50 µL of the complete media per well using a Multidrop Combi dispenser (Thermo Fisher Scientific, Waltham, MA, USA) and then the plate cultures were incubated at 37 °C in a 5% CO2 humidified incubator for 20 h. The HepG2-ARE cells were incubated with compounds for 18 h. The known ARE activator TBHQ was used as a positive control and the cells treated with 0.35% DMSO and without compounds tested served as a vehicle control. The cells in the absence of DMSO and the compounds were utilized for measuring the background luminescence. The reporter activity was measured by the addition of 25 µL Steady-Glo® luciferase assay reagent (Promega) for 30 min using the Multidrop Combi dispenser (Thermo Fisher Scientific). The luminescence intensities of the 384-well plates were read on Enspire microplate reader (Perkin Elmer Inc.). Percent cytotoxicity of compounds was normalized to the positive and negative controls on each assay plate.
The ARE fold induction of the compounds was measured by dividing the luminescence absorbance of the treatment by the specific luminescence absorbance of the control sample and multiplying by 100. The control sample (in the presence of DMSO vehicle and without the compounds) was set at 100%.

[5] = Homo sapiens, MRC5, 72 h incubation
[6] = Homo sapiens, A549, 72 h incubation

SMILES	IC50 ([1]; 72 h incubation) [µM]	IC50 ([2]; 72 h incubation) [µM]	Fold-Increase Over Trolox [3]	total antioxidant capacity compared with the control (Trolox) [3]	Slope (in Trolox Equivalents) [3]	IC50 [1, 5] [µM]	ARE activation among all compounds (rank in words) ([4]; HepG2-ARE cells, 18 h)	IC50 [2, 6] [µM]	toxicity to HepG2-ARE cells [4]
C[S+]([O-])CCCCN=C=S (racemic) [DL-Sulforaphane, reference compound]	9.95	17							
Oc1cc(O)c2c(c1)O[C@H](c1ccc(O)c(O)c1)[C@@H](O)C2 [(+)-Catechin]	> 250	> 250	2.0	higher	0.002029 ± 3.184 × 10^−5				
Oc1cc(O)c2c(c1)O[C@H](c1ccc(O)c(O)c1)[C@H](O)C2 [(−)-Epicatechin]			3.7	higher	0.003729 ± 7.546 × 10^−5	> 250	strongest	> 250	
O=c1oc2c(O)c(O)cc3c(=O)oc4c(O)c(O)cc1c4c23 [Ellagic acid]			0.5	lower	0.0005183 ± 2.860 × 10^−5	> 250		> 250	
O=C(O[C@@H]1Cc2c(O)cc(O)cc2O[C@@H]1c1ccc(O)c(O)c1)c1cc(O)c(O)c(O)c1 [Epicatechin gallate]			4.2	higher	0.004294 ± 1.570 × 10^−4	64.4		66	toxic to cells
COc1cc(/C=C/C(=O)O)ccc1O [Ferulic acid]	> 250	> 250	1.8	higher	0.001775 ± 5.026 × 10^−5				
O=C(O)c1cc(O)c(O)c(O)c1 [Gallic acid]				higher	0.002541 ± 1.392 × 10^−5	48.2		> 250	
C[C@@H]1O[C@@H](O[C@H]2[C@H](Oc3cc(O)c4c(c3)O[C@H](c3ccc(O)cc3)CC4=O)O[C@H](CO)[C@@H](O)[C@@H]2O)[C@H](O)[C@H](O)[C@H]1O [Naringin]			0.5	lower	0.0005177 ± 9.755 × 10^−6	> 250		> 250	
O=C(OC[C@H]1O[C@@H](OC(=O)c2cc(O)c(O)c(O)c2)[C@H](OC(=O)c2cc(O)c(O)c(O)c2)[C@@H](OC(=O)c2cc(O)c(O)c(O)c2)[C@@H]1OC(=O)c1cc(O)c(O)c(O)c1)c1cc(O)c(O)c(O)c1 [Penta-O-galloyl-β-D-glucose]	10.4	6.11	11.5	higher	0.01167 ± 5.756 × 10^−4				toxic to cells
O=c1c(O[C@@H]2O[C@H](CO)[C@@H](O)[C@H](O)[C@H]2O)c(-c2ccc(O)c(O)c2)oc2cc(O)cc(O)c12 [Quercetin 3-β-D-glucoside]	12.2	6.89	2.9	higher	0.002908 ± 1.522 × 10^−4				toxic to cells
O=c1c(O)c(-c2ccc(O)c(O)c2)oc2cc(O)cc(O)c12 [Quercetin]			4.0	higher	0.004045 ± 1.392 × 10^−4	99.5		87.7	
O=C(O)[C@]1(O)C[C@@H](O)[C@@H](O)[C@H](O)C1 [Quinic acid]			<0.1	lower	−0.0000004 ± 1.034 × 10^−6	> 250		> 250	
C[C@@H]1O[C@@H](OC[C@H]2O[C@@H](Oc3c(-c4ccc(O)c(O)c4)oc4cc(O)cc(O)c4c3=O)[C@H](O)[C@@H](O)[C@@H]2O)[C@H](O)[C@H](O)[C@H]1O [Rutin]			2.9	higher	0.002962 ± 1.551 × 10^−4	> 250		> 250	
COc1cc(C(=O)O)cc(OC)c1O [Syringic acid]			1.1	higher	0.001088 ± 1.057 × 10^−5	> 250		> 250	
Cc1c(C)c2c(c(C)c1O)CCC(C)(C(=O)O)O2 (centres unmarked) [Trolox, reference compound]			1.0		0.001014 ± 1.125 × 10^−5				
COc1cc(C(=O)O)ccc1O [Vanillic acid]			0.7	lower	0.0007396 ± 4.245 × 10^−5	> 250		> 250	
O=C(O)C=Cc1ccc(O)cc1 [p-Coumaric acid]			0.3	lower	0.0003139 ± 1.434 × 10^−5	> 250		> 250	
O=C(O)c1ccc(O)cc1 [p-Hydroxybenzoic acid]				lower	−0.000008 ± 1.260 × 10^−5	> 250		> 250	
